Source: publication PMC11435220, “Anticancer Activity of Imidazolyl Gold(I/III) Compounds in Non-Small Cell Lung Cancer Cell Lines” (Pharmaceuticals, 2024)

How the values were obtained:
[1] = tested on: H522; experiment: MTT viability assay, H522; format: cell-based, human; conditions: mean ± span, 48 h treatment, cell line without KRAS mutation
Experimental: (§1) NSCLC cell lines were obtained from the Hamon Center for Therapeutic Oncology Research (UT Southwestern Medical Center). IMR-90 human lung fibroblasts were from ATCC (CC-186). All cell lines were maintained and treated in RPMI medium (Cytiva (Shanghai, China), #SH30027), supplemented with 10% heat-inactivated FBS (Millipore Sigma (Darmstadt, Germany), F0394).
(§2) 5000–10,000 cells/0.1 mL/well were seeded in 96-well plates to achieve 70% confluence after 24 h. All drug stock solutions were prepared fresh in DMSO at a concentration of 10 mM. The day after cell plating, we added 0.1 mL of medium containing the appropriate drug dilutions. After 48 h of treatment, 10 μL of MTT solution (5 mg/mL) was added to each well. After 4 h incubation, the medium was aspirated, and the formazan salts dissolved in 200 μL DMSO/well for 10 min at 37 °C. The absorbance was read at 570 nm (OD 570 nm). Data are represented as mean ± SD of two independent experiments.
(§3) Statistical and data analysis was performed using GraphPad Prism (v10). IC50 values were calculated using a three-parameter non-linear regression model with log(inhibitor) vs. response. For the TxrR activity statistics, the groups were compared using a two-way ANOVA followed by Dunnett’s multiple comparisons with alpha = 0.05. The correlation between IC50 values and TxrR activity was achieved using Pearson correlation with alpha = 0.05.

[2] = tested on: H661; experiment: MTT viability assay, H661; format: cell-based, human; conditions: mean ± span, 48 h treatment, cell line without KRAS mutation
Experimental: as §1, §2, §3

[3] = tested on: H1395; experiment: MTT viability assay, H1395; format: cell-based, human; conditions: mean ± span, 48 h treatment, cell line without KRAS mutation
Experimental: as §1, §2, §3

[4] = tested on: H1993; experiment: MTT viability assay, H1993; format: cell-based, human; conditions: mean ± span, 48 h treatment, cell line without KRAS mutation
Experimental: as §1, §2, §3

[5] = tested on: A549; experiment: MTT viability assay, A549; format: cell-based, human; conditions: mean ± span, 48 h treatment, cell line with KRAS mutation
Experimental: as §1, §2, §3

[6] = tested on: H460; experiment: MTT viability assay, H460; format: cell-based, human; conditions: mean ± span, 48 h treatment, cell line with KRAS mutation
Experimental: as §1, §2, §3

[7] = tested on: H1792; experiment: MTT viability assay, H1792; format: cell-based, human; conditions: mean ± span, 48 h treatment, cell line with KRAS mutation
Experimental: as §1, §2, §3

[8] = tested on: HCC-44; experiment: MTT viability assay, HCC-44; format: cell-based, human; conditions: mean ± span, 48 h treatment, cell line with KRAS mutation
Experimental: as §1, §2, §3

[9] = tested on: H1355; experiment: MTT viability assay, H1355; format: cell-based, human; conditions: mean ± span, 48 h treatment, cell line with KRAS mutation
Experimental: as §1, §2, §3

[10] = tested on: human NSCLC cell lines without KRAS mutations; experiment: MTT assay, average across NSCLC cell lines without KRAS mutations; format: cell-based; conditions: average across cell lines without KRAS mutations (H522, H661, H1395, H1993), 48 h, read-out: IC50 * averaged values
Experimental: as §1, §2, §3

[11] = tested on: human NSCLC cell lines with KRAS mutations; experiment: MTT assay, average across NSCLC cell lines with KRAS mutations; format: cell-based; conditions: 48 h, read-out: IC50 * averaged values
Experimental: as §1, §2, §3

[12] = tested on: TrxR in H522 cell lysates; experiment: Thioredoxin reductase activity in lysates of treated H522 cells; format: cell-based, human; conditions: for TrxR activity reduction / inhibition: H522, 24 h treatment, stated for both cell lines; for Mean Diff. TrxR activity vs. veh: H522 lysate, 24 h treatment at 5 μM
Experimental: (§4) The enzymatic activity of TrxR in the A549 and H522 cell lysates was measured using the TrxR assay Kit (Abcam ab83463) following the manufacturer’s instructions. This kit is based on the TxrR-mediated reduction of the colorless DTNB into TNB2—(yellow). Briefly, cells were plated to reach 70% confluence on a 100-mm dish in one day. They were treated with 5 μM of the gold compounds or the equivalent quantity of DMSO for 24 h. Then, cells were washed in PBS 1X, detached, and lysed in 100 μL of cold TrxR assay buffer supplemented with the Proteinase Inhibitor Cocktail. 20 μg and 40 μg of total proteins were used for the A549 and the H522, respectively. The DTNB substrate was added to samples with or without TrxR inhibitor (provided with the kit) in 96-well plates. The OD412 was measured soon after the substrate addition (A1) and then after 25, 60, 90, and 110 min (An) at 25 °C using a FLUOstar Omega Microplate Reader (BGM Labtech, Chicago, IL, USA). Data analysis was performed following the manufacturer’s instructions. The OD of TNB2, generated by TrxR in every condition, is:ΔA412 nm = (AnAB − AnINH) − (AB − A1INH) where AB is the assay buffer, and INH is the inhibitor. The TrxR activity is:(2) ΔB/Tn−T1×mg of protein lysate×sample dilution factor=(nmol/min)/mg=mU/mg where ΔB is the TNB amount calculated applying ΔA412 nm to TNB standard curve (in nmol), T1 is the time of the first reading (A1AB, and A1INH) (in min), Tn is the time of the second reading (AnAB and AnINH) (in min). The residual TxrR activity (%) was calculated by normalizing the TxrR activity for each compound with the matching vehicle values at every n time point.
as §3

[13] = tested on: TrxR in A549 cell lysates; experiment: Thioredoxin reductase activity in lysates of treated A549 cells; format: cell-based, human; conditions: for TrxR activity reduction / inhibition: A549, 24 h treatment, stated for both cell lines; for Mean Diff. TrxR activity vs. veh: A549 lysate, 24 h treatment at 5 μM
Experimental: as §4, §3

[14] = Solution stability by UV-visible spectra over time; format: physicochemical; conditions: for percent concentration reduction estimated from UV spectra: 100 µM solution, within an hour; for stability in solution: UV-visible spectra over time, DMSO, methanol, PBS buffered solutions
Experimental: Stability studies were led by acquiring UV−visible spectra of 100 µM DMSO or methanol solutions of compounds 1∓8 over time (Figures S19–S29 in Supplementary Materials). […] The stability of NHC-AuX3 complexes (with X = Cl, compounds 1 and 2, with X = Br, compounds 5 and 6) was affected by the nature of both the substituents on the imidazolyl ligand and of the halide, showing a small decrease of the UV bands maxima in an hour. By analyzing the spectral data of compounds 1 and 2, a percent concentration reduction of about 4–5% was estimated within an hour, grading them eligible for biological tests. The partial instability may be attributed to the formation of cationic bis-carbeneAuCl2 species (Equation (1)), with the [bis-carbeneAuX2]^+ and the respective AuX2^−; these ions were actually detected as positive and negative ions in the ESI-MS spectra (see Figures S12 and S13). […] Additionally, the (+)ESI MS spectrum of the acetonitrile solution of compound 6 is particularly rich in positive ions (Figure S16). As concerns the mono-/bis-carbene formation, it is likely initiated by the large trans effect of the carbene ligands, which induces the chemical lability on the trans halide, triggers […], the formation of bis-carbeneAu(III) species, and AuX2^− or AuX4^− anions:2[NHC-AuX3] ⇔ [[(NHC)2AuX2] [AuX2^−] + 2X(1) […]
The stability of the samples 1-8 in DMSO solution was assayed by UV-visible spectroscopy. Spectra were acquired using the Shimadzu UV-2700i spectrophotometer, equipped with the Shimadzu CPS-100 Peltier, at 293 K. Unless diversely specified, 100 µM DMSO solutions of the 1-8 compounds were prepared and spectra were acquired each 10 minutes for a total of 60 minutes. The spectra obtained are reported as following.
Figure S19. UV-Visible Spectra acquired for complex 1.
Figure S20. UV-Visible Spectra acquired for complex 2. […]

Compound | IC50 [1] [µM] | IC50 [2] [µM] | IC50 [3] [µM] | IC50 [4] [µM] | IC50 [5] [µM] | IC50 [6] [µM] | IC50 [7] [µM] | IC50 [8] [µM] | IC50 [9] [µM] | IC50 [10] [µM] | IC50 [11] [µM] | TrxR activity reduction / inhibition [12] | Mean Diff. TrxR activity vs. veh ([12]; reading at 25 min) [%] | Mean Diff. TrxR activity vs. veh ([12]; reading at 60 min) [%] | Mean Diff. TrxR activity vs. veh ([12]; reading at 90 min) [%] | Mean Diff. TrxR activity vs. veh ([12]; reading at 110 min) [%] | Mean Diff. TrxR activity vs. veh ([13]; reading at 25 min) [%] | Mean Diff. TrxR activity vs. veh ([13]; reading at 60 min) [%] | Mean Diff. TrxR activity vs. veh ([13]; reading at 90 min) [%] | Mean Diff. TrxR activity vs. veh ([13]; reading at 110 min) [%] | further results
Cn1cc[n+](C)[c]1[Au-]([Cl])([Cl])[Cl] [Compound 1] | 75 ± 0.89 | 47 ± 1.1 | 47 ± 0.4 | 37 ± 1.3 | > 100 | 52 ± 1.2 | 60 ± 1.4 | 45 ± 0.25 | 41 ± 0.33 | 52 | 62 | 20–30% | 15.84 | −8.894 | −20.1 | −23.89 | −16.73 | −13.1 | −26.55 | −32.38 | TrxR activity reduction / inhibition [13]: 20–30%; percent concentration reduction estimated from UV spectra [14]: 4–5%
C[n+]1ccn(Cc2ccccc2)[c]1[Au-]([Cl])([Cl])[Cl] [Compound 2] | 53 ± 2.1 | 45 ± 1.7 | 17 ± 0.8 | 6.1 ± 0.76 | 56 ± 1.6 | 65 ± 2.2 | 24 ± 0.98 | 26 ± 1.3 | 34 ± 1.4 | 30 | 41 | 20–30% | 3.864 | −19.16 | −23.38 | −31.46 | −5.148 | −11.64 | −22.67 | −30.44 | TrxR activity reduction / inhibition [13]: 20–30%; percent concentration reduction estimated from UV spectra [14]: 4–5%
C[n+]1ccn(Cc2ccccc2)[c]1[Au-][Br] [Compound 4] | 5.3 ± 0.88 | 7 ± 0.81 | 11 ± 0.88 | 12 ± 1.03 | 19 ± 1 | 11 ± 1.2 | 16 ± 0.94 | 14 ± 1.1 | 8.1 ± 0.66 | 9 | 14 |  | 23.18 | 7.116 | −0.3654 | −18.72 | −3.861 | −2.183 | −18.13 | −21.37 | 
Cn1cc[n+](C)[c]1[Au-]([Br])([Br])[Br] [Compound 5] | 52 ± 0.37 | 42 ± 1.7 | 49 ± 0.11 | 70 ± 1.6 | 49 ± 0.33 | > 100 | > 100 | 32 ± 1.6 | 12 ± 0.72 | 53 | 59 | 30–40% | −35.55 | −39.68 | −41.1 | −45.26 | −11.58 | −29.11 | −31.74 | −33.68 | TrxR activity reduction / inhibition [13]: 30–40%; stability in solution [14]: least stable in solution
C[n+]1ccn(Cc2ccccc2)[c]1[Au-]([Br])([Br])[Br] [Compound 6] | 55 ± 1.9 | 26 ± 1.5 | 62 ± 2.4 | 5.6 ± 0.76 | 13 ± 1.03 | 37 ± 1.8 | 15 ± 1.1 | 19 ± 1.4 | 59 ± 1.7 | 37 | 29 | 30–40% | −31.68 | −37.22 | −39.82 | −46.06 | −17.37 | −2.183 | −31.09 | −38.86 | TrxR activity reduction / inhibition [13]: 30–40%; stability in solution [14]: least stable in solution
[bis-(1,3-dimethyl-imidazoly-2yl)]gold(I) dibromoaurate [Compound 3] | 15 ± 1.1 | 27 ± 1.2 | 11 ± 0.63 | 11 ± 0.96 | 91 ± 1.03 | 68 ± 0.1 | 50 ± 1.2 | 10 ± 1.1 | 9.1 ± 1.03 | 16 | 46 |  | −44.05 | −47.07 | −47.31 | −50.17 | −21.88 | −4.221 | −8.42 | −9.068 | 
